Laboratory results: article PMC9410420, “Novel Labdane Diterpenes-Based Synthetic Derivatives: Identification of a Bifunctional Vasodilator That Inhibits CaV1.2 and Stimulates KCa1.1 Channels” (Marine Drugs, 2022)

Key:
[1] = target: T1, CaV1.2 channel (Rattus norvegicus, UniProt P22002); test: Whole-cell patch-clamp, Ba2+ current through CaV1.2 channels (IBa1.2) in rat tail artery myocytes; assay type: cell-based; conditions: for Emax: read-out: Emax (percent maximal inhibition), IBa1.2; for IC50: read-out: IC50, IBa1.2 inhibition
T1 construct: smooth muscle cells were freshly isolated; endogenous in cells; host or cells: freshly isolated rat tail main artery smooth muscle cells
Protocol: The tail main artery was dissected free of its connective tissue, and smooth muscle cells were freshly isolated under the following conditions. […] Cells stored in 0.05 mM Ca^2+ external solution containing 20 mM taurine and 0.5 mg/mL BSA at 4 °C under normal air were used for experiments within two days after isolation.
An Axopatch 200B patch-clamp amplifier (Molecular Devices Corporation, Sunnyvale, CA, USA) was used to generate and apply voltage pulses to the clamped cells and record the corresponding membrane currents. Recording electrodes were pulled from borosilicate glass capillaries (WPI, Berlin, Germany) and fire-polished to obtain a pipette resistance of 2–4 MΩ, when filled with an internal solution. At the beginning of each experiment, the junction potential between the pipette and bath solution was electronically adjusted to zero. […] Electrophysiological responses were tested at room temperature (20–22 °C).
The conventional whole-cell patch-clamp method was employed to voltage-clamp smooth muscle cells. The internal solution consisted of (in mM) 100 CsCl, 10 HEPES, 11 EGTA, 2 MgCl2, 1 CaCl2 (pCa 8.4), 5 Na pyruvate, 5 succinic acid, 5 oxaloacetic acid, 3 Na2ATP, and 5 phosphocreatine; pH was adjusted to 7.4 with CsOH. IBa1.2 was recorded in an external solution containing 30 mM TEA and 5 mM Ba^2+. […] Data were collected once the current amplitude had been stabilized (usually 7–10 min after the whole-cell configuration had been obtained).

[2] = tested on: rat aorta rings; test: Phenylephrine-induced contraction of rat aorta rings (pharmaco-mechanical coupling); conditions: for Emax: Rattus norvegicus; for Emax / IC50: 0.3 µM phenylephrine
Protocol: (§1) The abdominal aorta was gently cleaned of adipose and connective tissues and cut into 3-mm wide rings. These were mounted in organ baths between two parallel, L-shaped, stainless-steel hooks, with one fixed in place and the other connected to an isometric transducer. Rings were allowed to equilibrate for 60 min in modified Krebs-Henseleit solution (composition in mM: 118 NaCl, 4.75 KCl, 1.19 KH2PO4, 1.19 MgSO4, 25 NaHCO3, 11.5 glucose, 2.5 CaCl2, gassed with a 95% O2–5% CO2 gas mixture to create a pH of 7.4) under a passive tension of 1 g. During this equilibration period, the solution was changed every 15 min. Isometric tension was recorded using a digital PowerLab data acquisition system (PowerLab 8/30; ADInstruments). Ring viability was assessed by recording the response to 0.3 µM phenylephrine and 60 mM KCl. Where needed, the endothelium was removed by gently rubbing the lumen of the ring with a forceps tip. This procedure was validated by adding 10 µM acetylcholine at the plateau of phenylephrine-induced contraction; a relaxation greater than 70% or less than 10% denoted the presence or absence of functional endothelium, respectively.
(§2) Aorta rings were pre-contracted pharmaco-mechanically using 0.3 µM phenylephrine and electromechanically using 25–30 mM or 60 mM KCl. Once the contraction reached a plateau, the compound was added cumulatively into the organ bath. […] The response was calculated as the percentage of phenylephrine- or KCl-induced contraction (taken as 100%).

[3] = tested on: rat aorta rings; test: KCl-induced contraction of rat aorta rings (electromechanical coupling)
Protocol: as §1, §2

[4] = target: T1, CaV1.2 channel; test: Voltage dependence of CaV1.2 channel steady-state activation and inactivation in rat tail artery myocytes; assay type: cell-based; conditions: for Slope inact (slope factor of inactivation) / V50 inact (50% inactivation potential): Vh −80 mV
Text: An Axopatch 200B patch-clamp amplifier (Molecular Devices Corporation, Sunnyvale, CA, USA) was used to generate and apply voltage pulses to the clamped cells and record the corresponding membrane currents. Recording electrodes were pulled from borosilicate glass capillaries (WPI, Berlin, Germany) and fire-polished to obtain a pipette resistance of 2–4 MΩ, when filled with an internal solution. At the beginning of each experiment, the junction potential between the pipette and bath solution was electronically adjusted to zero. After compensation for whole-cell capacitance and series resistance (between 70% and 75%), current signals were low-pass filtered at 1 kHz and digitized at 3 kHz, before being stored on a computer hard disk. Electrophysiological responses were tested at room temperature (20–22 °C).
Cells were continuously superfused with an external solution containing 0.1 mM Ca^2+ and 30 mM TEA using a peristaltic pump (LKB 2132, Bromma, Sweden) at a flow rate of 400 µL/min. The conventional whole-cell patch-clamp method was employed to voltage-clamp smooth muscle cells. The internal solution consisted of (in mM) 100 CsCl, 10 HEPES, 11 EGTA, 2 MgCl2, 1 CaCl2 (pCa 8.4), 5 Na pyruvate, 5 succinic acid, 5 oxaloacetic acid, 3 Na2ATP, and 5 phosphocreatine; pH was adjusted to 7.4 with CsOH. IBa1.2 was recorded in an external solution containing 30 mM TEA and 5 mM Ba^2+. The current was elicited with 250-ms clamp pulses (0.067 Hz) to 10 mV, from a Vh of −50 mV. Data were collected once the current amplitude had been stabilized (usually 7–10 min after the whole-cell configuration had been obtained).
Steady-state activation curves were derived from the current–voltage relationships. Conductance (G) was calculated from the equation G = IBa1.2/(Em − Erev), where: IBa1.2 is the peak current elicited by depolarizing test pulses between −50 mV and 40 mV from a Vh of −50 mV; Em is the membrane potential; and Erev is the reversal potential (estimated from the extrapolated current-voltage curves in Figure 2). Gmax is the maximal Ba^2+ conductance (calculated at potentials ≤40 mV). The G/Gmax ratio was plotted against the membrane potential and fitted to the Boltzmann equation [40]. Steady-state inactivation curves were obtained using a double-pulse protocol. Once various levels of the conditioning potential had been applied for 5 s, followed by a short (5-ms) return to the Vh of −80 mV, a test pulse (250 ms) to 10 mV was delivered to evoke the current. The delay between the conditioning potential and the test pulse allowed the full or near-complete deactivation of the channels, simultaneously avoiding partial recovery from inactivation. K^+ currents were blocked with 30 mM TEA in the external solution and Cs^+ in the internal solution. […] The osmolarity of the 30 mM TEA- and 5 mM Ba^2+-containing external solution (320 mosmol, adjusted with NaCl if required) and that of the internal solution (290 mosmol) were measured with an osmometer (Osmostat OM 6020, Menarini Diagnostics, Florence, Italy).

[5] = endothelium-denuded rat aorta rings pre-contracted by 25 mM KCl, read-out: Emax (percent maximal inhibition), KCl 25 mM-induced contraction
[6] = endothelium-denuded rat aorta rings pre-contracted by 60 mM KCl, read-out: Emax (percent maximal inhibition), KCl 60 mM-induced contraction
[7] = endothelium-denuded rat aorta rings pre-contracted by 60 mM KCl, read-out: IC50, KCl 60 mM-induced contraction
[8] = endothelium-denuded rat aorta rings, read-out: Emax (percent maximal inhibition), phenylephrine-induced contraction, −Endothelium
[9] = endothelium-intact rat aorta rings, read-out: Emax (percent maximal inhibition), phenylephrine-induced contraction, +Endothelium
[10] = endothelium-denuded rat aorta rings
[11] = endothelium-denuded rat aorta rings pre-contracted by 25 mM KCl, read-out: IC50, KCl 25 mM-induced contraction

T1 sequence (P22002 whole entry): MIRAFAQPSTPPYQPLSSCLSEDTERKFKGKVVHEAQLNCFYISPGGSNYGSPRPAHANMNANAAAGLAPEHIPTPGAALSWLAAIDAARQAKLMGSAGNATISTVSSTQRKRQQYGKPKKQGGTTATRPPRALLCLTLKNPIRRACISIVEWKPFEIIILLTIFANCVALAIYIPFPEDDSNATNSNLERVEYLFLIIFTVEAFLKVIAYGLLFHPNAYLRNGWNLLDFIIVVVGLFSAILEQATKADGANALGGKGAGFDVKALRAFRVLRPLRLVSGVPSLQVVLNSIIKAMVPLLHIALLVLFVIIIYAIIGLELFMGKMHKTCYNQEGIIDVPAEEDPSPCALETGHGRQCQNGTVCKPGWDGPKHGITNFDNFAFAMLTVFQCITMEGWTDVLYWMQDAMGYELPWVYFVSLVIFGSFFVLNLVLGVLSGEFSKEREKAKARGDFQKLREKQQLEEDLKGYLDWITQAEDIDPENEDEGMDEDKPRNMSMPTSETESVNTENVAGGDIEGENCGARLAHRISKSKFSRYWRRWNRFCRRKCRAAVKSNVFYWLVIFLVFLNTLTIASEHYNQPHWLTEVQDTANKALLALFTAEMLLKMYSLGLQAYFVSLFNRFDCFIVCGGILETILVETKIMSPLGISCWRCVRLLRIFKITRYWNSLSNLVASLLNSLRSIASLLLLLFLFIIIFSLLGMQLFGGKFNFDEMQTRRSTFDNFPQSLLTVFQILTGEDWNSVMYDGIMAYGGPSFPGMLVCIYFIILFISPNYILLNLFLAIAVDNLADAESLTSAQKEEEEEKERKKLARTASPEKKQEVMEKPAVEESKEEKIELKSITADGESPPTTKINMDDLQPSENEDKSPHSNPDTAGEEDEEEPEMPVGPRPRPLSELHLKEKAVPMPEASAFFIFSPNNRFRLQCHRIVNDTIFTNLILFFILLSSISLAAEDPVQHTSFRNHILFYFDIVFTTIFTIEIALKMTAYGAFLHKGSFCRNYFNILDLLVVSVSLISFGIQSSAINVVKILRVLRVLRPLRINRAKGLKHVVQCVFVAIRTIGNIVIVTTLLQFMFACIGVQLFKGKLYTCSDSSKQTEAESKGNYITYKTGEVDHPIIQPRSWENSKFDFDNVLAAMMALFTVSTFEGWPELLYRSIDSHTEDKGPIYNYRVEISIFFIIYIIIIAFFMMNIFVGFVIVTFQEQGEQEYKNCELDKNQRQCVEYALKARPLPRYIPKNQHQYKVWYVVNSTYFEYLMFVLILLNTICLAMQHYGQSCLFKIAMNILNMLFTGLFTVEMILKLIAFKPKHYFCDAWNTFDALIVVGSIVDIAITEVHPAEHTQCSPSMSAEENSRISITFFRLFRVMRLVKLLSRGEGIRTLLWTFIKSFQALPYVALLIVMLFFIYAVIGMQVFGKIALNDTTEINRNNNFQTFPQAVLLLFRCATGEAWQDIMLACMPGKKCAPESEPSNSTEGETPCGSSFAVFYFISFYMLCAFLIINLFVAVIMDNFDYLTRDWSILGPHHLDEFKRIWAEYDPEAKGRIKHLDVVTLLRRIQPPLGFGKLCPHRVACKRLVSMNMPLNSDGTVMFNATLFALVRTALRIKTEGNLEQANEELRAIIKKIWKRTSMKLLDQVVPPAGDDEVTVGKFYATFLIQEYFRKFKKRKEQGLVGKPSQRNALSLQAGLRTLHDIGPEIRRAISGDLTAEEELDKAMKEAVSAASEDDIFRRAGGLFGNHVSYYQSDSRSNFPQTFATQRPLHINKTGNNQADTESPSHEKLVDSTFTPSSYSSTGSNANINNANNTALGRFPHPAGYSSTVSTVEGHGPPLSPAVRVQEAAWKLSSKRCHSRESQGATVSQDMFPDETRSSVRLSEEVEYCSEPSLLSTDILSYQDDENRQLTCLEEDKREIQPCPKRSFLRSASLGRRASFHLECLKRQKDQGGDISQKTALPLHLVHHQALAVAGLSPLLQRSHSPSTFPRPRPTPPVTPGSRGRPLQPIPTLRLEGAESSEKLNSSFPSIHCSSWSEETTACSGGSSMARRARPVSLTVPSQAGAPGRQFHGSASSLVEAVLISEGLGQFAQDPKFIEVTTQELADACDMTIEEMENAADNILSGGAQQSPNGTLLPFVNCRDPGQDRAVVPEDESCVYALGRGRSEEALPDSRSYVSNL
T1 sequence (P54290 25-944 partner limits assumed): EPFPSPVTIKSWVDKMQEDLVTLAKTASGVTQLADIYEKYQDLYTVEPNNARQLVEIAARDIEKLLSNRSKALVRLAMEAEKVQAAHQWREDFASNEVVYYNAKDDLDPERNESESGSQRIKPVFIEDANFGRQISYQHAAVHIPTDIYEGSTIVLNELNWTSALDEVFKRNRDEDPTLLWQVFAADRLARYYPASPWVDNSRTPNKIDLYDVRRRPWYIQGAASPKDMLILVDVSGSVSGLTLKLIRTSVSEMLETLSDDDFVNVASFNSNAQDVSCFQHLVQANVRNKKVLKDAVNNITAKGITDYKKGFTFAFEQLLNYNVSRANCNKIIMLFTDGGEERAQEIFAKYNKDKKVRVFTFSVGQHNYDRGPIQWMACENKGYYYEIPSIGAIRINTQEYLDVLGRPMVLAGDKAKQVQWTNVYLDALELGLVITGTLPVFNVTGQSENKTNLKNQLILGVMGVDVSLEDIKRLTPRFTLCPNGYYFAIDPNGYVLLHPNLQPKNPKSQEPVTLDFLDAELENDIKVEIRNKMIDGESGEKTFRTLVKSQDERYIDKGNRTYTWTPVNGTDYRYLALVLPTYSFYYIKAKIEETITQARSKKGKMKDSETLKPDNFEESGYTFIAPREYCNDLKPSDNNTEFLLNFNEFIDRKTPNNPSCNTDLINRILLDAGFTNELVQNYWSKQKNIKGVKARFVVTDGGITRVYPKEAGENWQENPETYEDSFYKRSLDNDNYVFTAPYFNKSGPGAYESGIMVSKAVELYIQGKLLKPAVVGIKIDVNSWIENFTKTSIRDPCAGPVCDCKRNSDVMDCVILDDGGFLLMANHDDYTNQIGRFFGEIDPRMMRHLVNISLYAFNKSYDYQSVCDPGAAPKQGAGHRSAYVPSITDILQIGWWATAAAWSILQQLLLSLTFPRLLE
T1 sequence (P54290 945-1091 partner limits assumed): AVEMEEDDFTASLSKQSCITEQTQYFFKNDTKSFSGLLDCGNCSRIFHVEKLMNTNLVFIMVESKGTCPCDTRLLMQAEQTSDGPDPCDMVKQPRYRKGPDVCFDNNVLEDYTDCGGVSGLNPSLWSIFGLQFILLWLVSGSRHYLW
T1 sequence (P54287 whole entry partner): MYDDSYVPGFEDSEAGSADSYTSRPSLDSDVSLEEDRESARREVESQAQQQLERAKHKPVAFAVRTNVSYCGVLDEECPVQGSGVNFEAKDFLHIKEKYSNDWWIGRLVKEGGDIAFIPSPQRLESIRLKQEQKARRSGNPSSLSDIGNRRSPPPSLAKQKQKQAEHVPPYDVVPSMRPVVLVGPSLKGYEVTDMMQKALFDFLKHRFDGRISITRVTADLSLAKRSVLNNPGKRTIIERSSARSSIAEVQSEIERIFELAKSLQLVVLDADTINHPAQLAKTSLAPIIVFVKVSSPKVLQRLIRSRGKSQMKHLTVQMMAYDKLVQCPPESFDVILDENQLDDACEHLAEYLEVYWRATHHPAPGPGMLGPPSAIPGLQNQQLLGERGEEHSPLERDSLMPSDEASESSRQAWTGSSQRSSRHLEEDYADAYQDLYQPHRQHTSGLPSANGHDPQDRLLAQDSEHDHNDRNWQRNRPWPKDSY

Molecule	IBa1.2, % of the control ([1]; 100 nM, n = 5) [%]	Emax ([1]; pulses to 10 mV from Vh −50 mV) [%]	IC50 ([1]; pulses to 10 mV from Vh −50 mV) [µM]	Effect on phenylephrine-induced tone in words ([2]; endothelium-intact rat aorta rings)	Emax [3, 5] [%]	Emax [3, 6] [%]	IC50 [3, 7] [µM]	Emax [2, 8] [%]	Emax [2, 9] [%]	IC50 [2, 10] [µM]	IC50 [3, 11] [µM]	Slope inact (slope factor of inactivation) ([4]; 10 µM compound)	V50 inact (50% inactivation potential) ([4]; 10 µM compound) [mV]	Slope act (slope factor of activation) ([4]; 30 µM compound)	V50 act (50% activation potential) ([4]; 30 µM compound) [mV]	Emax (percent maximal inhibition), IBa1.2 ([1]; pulses to 10 mV from Vh −50 mV)	Emax (percent maximal inhibition), KCl 60 mM-induced contraction ([3]; endothelium-denuded rat aorta rings pre-contracted by 60 mM KCl)	Slope act (slope factor of activation) ([4]; 10 µM compound)	V50 act (50% activation potential) ([4]; 10 µM compound) [mV]
COC(=O)C1=C(C)NC(C)=C([N+](=O)[O-])[C@H]1c1ccccc1C(F)(F)F [Bay K 8644, (S)-(-)-Bay K 8644, reference compound]	447 ± 28																		
CC1(C)CCCC2(C)C1CCC1(C)OC(=O)CC12 (single isomer, unassigned; (+)) [Compound 5, (+)-sclareolide, reference compound]		64.8 ± 6.1	~69	dramatic concentration-dependent increase of phenylephrine-induced tone	45.9 ± 8.5	73.5 ± 6.8	29.2 ± 6.1												
CC1(C)CCC[C@]2(C)[C@@H](CC(=O)NCc3ccco3)[C@](C)(O)CC[C@@H]12 [Compound 8]		92.4 ± 2.2	16.7 ± 3		85.8 ± 4.8	87.3 ± 4.9	6.1 ± 1.6	≤ 60	15.2 ± 7.9	~44.7	2.1 ± 0.9	−11.51 ± 1.90	−30.97 ± 3.49	7.61 ± 0.66	0.03 ± 1.35				
sclareol [Compound 6]			33.2 ± 6.8				11.9 ± 1.3									88.7 ± 4.0 (5) %	98.8 ± 1.3 (5) %		
CC1(C)CCC[C@]2(C)[C@@H](CC(=O)NCCc3cccc(F)c3)[C@](C)(O)CC[C@@H]12 [Compound 9]		97.8 ± 0.8	15.3 ± 5.3		92.3 ± 0.6	92.4 ± 1.3	4.5 ± 0.5	≤ 60	19.4 ± 23.2	~55	0.9 ± 0.2	−10.25 ± 1.33	−36.46 ± 2.73					6.79 ± 0.35	−2.37 ± 0.95
CC1(C)CCC[C@]2(C)[C@@H](CCOCc3cccc(Cl)c3)[C@](C)(O)CC[C@@H]12 [Compound 10]		86.4 ± 4.9	20.8 ± 6.1			53.1 ± 13.4	~69.2												
